In patent US8349804B2, “Bone graft and scaffolding materials immobilized with type I collagen binding peptides” (Seoul National University Industry Foundation, priority 2006, dated 2013):

Legend:
[1] = test system: Human-osteocarcoma cells (KCLB No. 21543); test: Test of cell adhesion on peptide-immobilized bone graft material; format: cell-based; conditions: phalloidin staining, confocal laser scanning microscope
Method: […] The bone graft materials with the cultured human-osteocarcoma cell were fixed with 2% glutaraldehyde solution. The fixed bone graft materials were treated with 1% triton X-100 and then added with a fluorescent-labeled phalloidin solution, thus staining the attached cytoplasm.

type I collagen = test: Affinity of peptide to type I collagen by Biacore X; format: binding; conditions: type I collagen bound to CM5 chip, peptide dissolved to be 4 μmol, ranking among SEQ ID NO: 1-3
Chain of type I collagen (P02452 162-1218 limits assumed): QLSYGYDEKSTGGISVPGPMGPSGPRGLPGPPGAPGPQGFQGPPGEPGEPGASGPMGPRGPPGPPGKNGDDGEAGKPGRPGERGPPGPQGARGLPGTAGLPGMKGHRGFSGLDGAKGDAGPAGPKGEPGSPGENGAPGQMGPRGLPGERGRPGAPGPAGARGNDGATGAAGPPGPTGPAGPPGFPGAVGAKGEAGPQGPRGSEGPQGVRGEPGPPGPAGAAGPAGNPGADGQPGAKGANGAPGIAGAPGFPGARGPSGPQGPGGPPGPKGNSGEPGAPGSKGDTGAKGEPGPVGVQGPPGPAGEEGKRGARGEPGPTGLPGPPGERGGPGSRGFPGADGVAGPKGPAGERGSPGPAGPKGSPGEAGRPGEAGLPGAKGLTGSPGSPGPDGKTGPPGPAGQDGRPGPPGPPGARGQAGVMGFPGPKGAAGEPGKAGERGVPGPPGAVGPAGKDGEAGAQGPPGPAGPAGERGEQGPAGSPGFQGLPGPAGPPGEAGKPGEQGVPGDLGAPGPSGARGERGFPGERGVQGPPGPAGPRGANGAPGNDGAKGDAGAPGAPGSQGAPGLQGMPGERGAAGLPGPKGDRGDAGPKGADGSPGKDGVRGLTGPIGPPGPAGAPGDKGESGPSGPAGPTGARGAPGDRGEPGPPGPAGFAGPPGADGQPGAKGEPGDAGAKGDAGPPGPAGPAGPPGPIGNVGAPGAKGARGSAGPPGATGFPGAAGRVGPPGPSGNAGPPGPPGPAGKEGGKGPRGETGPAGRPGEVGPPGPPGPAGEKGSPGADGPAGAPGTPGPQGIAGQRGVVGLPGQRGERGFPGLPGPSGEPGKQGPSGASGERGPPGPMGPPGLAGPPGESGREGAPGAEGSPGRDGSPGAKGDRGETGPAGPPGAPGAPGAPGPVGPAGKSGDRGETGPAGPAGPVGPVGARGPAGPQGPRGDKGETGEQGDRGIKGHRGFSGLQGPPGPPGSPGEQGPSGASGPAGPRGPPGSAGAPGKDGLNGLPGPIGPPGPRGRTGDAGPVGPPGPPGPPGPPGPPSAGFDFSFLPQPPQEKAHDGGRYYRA
Chain of type I collagen (P08123 80-1119 limits assumed, further chain): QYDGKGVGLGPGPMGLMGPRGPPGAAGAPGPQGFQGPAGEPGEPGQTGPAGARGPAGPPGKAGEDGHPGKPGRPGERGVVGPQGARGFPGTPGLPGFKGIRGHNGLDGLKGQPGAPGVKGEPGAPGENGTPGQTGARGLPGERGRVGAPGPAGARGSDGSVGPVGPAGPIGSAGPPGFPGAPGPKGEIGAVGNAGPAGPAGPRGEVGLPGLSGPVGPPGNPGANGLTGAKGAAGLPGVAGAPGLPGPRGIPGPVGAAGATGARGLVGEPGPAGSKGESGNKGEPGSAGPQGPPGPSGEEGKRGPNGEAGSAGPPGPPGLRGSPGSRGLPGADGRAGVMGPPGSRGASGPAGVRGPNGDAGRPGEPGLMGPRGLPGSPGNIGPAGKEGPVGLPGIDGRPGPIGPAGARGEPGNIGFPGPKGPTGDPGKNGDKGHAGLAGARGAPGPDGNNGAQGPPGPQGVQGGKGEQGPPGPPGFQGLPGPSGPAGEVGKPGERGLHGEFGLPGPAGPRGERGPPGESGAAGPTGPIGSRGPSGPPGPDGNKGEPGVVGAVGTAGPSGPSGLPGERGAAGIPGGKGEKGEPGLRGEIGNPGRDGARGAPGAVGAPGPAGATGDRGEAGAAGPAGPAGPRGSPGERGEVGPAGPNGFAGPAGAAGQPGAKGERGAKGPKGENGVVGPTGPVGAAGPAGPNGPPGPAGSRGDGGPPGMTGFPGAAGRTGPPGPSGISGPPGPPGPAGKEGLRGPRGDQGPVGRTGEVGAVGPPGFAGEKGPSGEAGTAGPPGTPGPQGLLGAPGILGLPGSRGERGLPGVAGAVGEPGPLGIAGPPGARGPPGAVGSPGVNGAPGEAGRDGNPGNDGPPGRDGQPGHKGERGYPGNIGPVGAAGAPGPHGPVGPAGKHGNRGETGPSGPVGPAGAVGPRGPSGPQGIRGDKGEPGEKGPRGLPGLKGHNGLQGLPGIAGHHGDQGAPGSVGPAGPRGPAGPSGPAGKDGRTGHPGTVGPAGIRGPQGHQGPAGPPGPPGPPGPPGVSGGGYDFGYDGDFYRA
From the text: The synthesized peptide's affinity to type I collagen was examined using Biacore X (Biacore Co., Sweden). After the type I collagen was bound to CM5 chip, the amount of peptides binding with collagen was quantitated while flowing the prepared peptide dissolved to be 4 μmol into micro-channels of Biacore X (FIG. 1).

ERK = test: Western blot of phosphorylated ERK (pERK); format: cell-based, human; conditions: C2C12 cells treated with peptides for 30 min; compared with non-treated cells (NT)
Method: In order to examine the expression of differentiation marker protein in osteoblasts cultured on the surface of the bone graft material on which peptides added with cysteine at each N-terminal end of amino acid sequences of SEQ ID NOs: 1, 2 and 3, prepared in example 2 according to the present invention were immobilized, the peptides were exposed to human mesenchymally derived stem cells (C2C12) for 30 min, and collected to measure the amount of ERK protein, a marker proteins involved in intracellular signal transfer, by Western blot.
The human mesenchymally derived stem cells were transplanted to 60 mm of petridish, treated with peptides for 30 min. Whole intracellular protein was extracted and quantitated by Bradford method. 40[…] of protein was electrophoresed on acrylamide gel and transferred to nitrocellulose membrane, and ERK, intracellular signal transmission protein within cell was reacted with the antibody of phosphorylated ERK (pERK), followed by reacting with the second antibody labeled with a marker. The membrane was developed to observe the protein bands and measure densities thereof (FIG. 4).

[2] = Test of calcification (calcein staining, confocal microscopy); format: cell-based, human; conditions: cultured 14 days in medium for forming hard tissue; compared with group without peptides
Method: The bone graft materials prepared in Examples 2 was added to a medium for forming a hard tissue containing calcein (fluorescent marker of calcium), and human mesenchymally derived stem cells (C2Cl2: ATCC CRL-1772) were cultured for 14 days. The cultured osteoblasts werefixed with 2% glutaraldehyde solution and treated with 1% triton X-100 and then added with a fluorescent-labeled phalloidin solution, thus staining the fixed cytoplasm.

Bovine serum albumin [BSA, reference compound]
cell adhesion pattern on coated surface [1]: spherical and unstable adhesion aspect of the cells

KMFHVSNAQYPGA (listed as Oryctolagus cuniculus) [SEQ ID NO: 2]
cell adhesion pattern on coated surface [1]: stable adhesion of the cells
affinity to type I collagen (amount of peptide binding with collagen) (type I collagen): lowest affinity
expression of phosphorylated ERK (pERK) (ERK): significantly increased
calcium adhesion (calcein fluorescence), calcification of cells [2]: much more fluorescence

YRLKRSKS (listed as Oryctolagus cuniculus) [SEQ ID NO: 1]
cell adhesion pattern on coated surface [1]: stable adhesion of the cells
expression of phosphorylated ERK (pERK) (ERK): significantly increased
calcium adhesion (calcein fluorescence), calcification of cells [2]: much more fluorescence

YRLKRSKSKMFHVSNAQYPGA (listed as Oryctolagus cuniculus) [SEQ ID NO: 3]
cell adhesion pattern on coated surface [1]: stable adhesion of the cells
affinity to type I collagen (amount of peptide binding with collagen) (type I collagen): highest affinity
expression of phosphorylated ERK (pERK) (ERK): significantly increased
calcium adhesion (calcein fluorescence), calcification of cells [2]: much more fluorescence
